Assay results as given in US11229597B2, “Topical doxycycline composition” (HORUS PHARMA, priority 2017, dated 2022).

Assay: Stability tests of doxycycline (active principle content by HPLC over time)
Type: physicochemical
Details: for stability of doxycycline in glycerol solution as a function of time: 25° C. (FIG. 2)
Experimental: The preparation in the form of an H/L emulsion containing the active principle and cyclodextrins in solution in the polyol is carried out according to the following method: • The liquid hydrophobic material/semi-solid hydrophobic material base (called phase A) is formulated by mixing in a water bath at 75° C. to make all components miscible. For the mass ratio of liquid hydrophobic material to semi-solid hydrophobic material 0/100, the semi-solid hydrophobic material is added directly to the mixer at 45° C. • The temperature of phase A is lowered to 45° C. and then phase A is transferred to the mixer whose temperature is 45° C. • The cyclodextrin is added to the polyol (called phase B) and magnetically stirred then the doxycyline hyclate is added to phase B and magnetically stirred until all components are completely dissolved, the temperature of the solution is increased to 45° C. • When phases A and B are at the same temperature, phase B is added to phase A under stirring to form an emulsion. • The emulsion is stirred for 30 minutes at 700 rpm at 45° C. and then the temperature of the entire mixture is reduced to 37° C. • The resulting emulsion is packaged and cooled to room temperature. In order to assay of the active principle in the formulation, the following extraction is carried out: • 1.0 g of the formula is diluted in 10.0 g of water and stirred with a suitable stirring system for 30 minutes at 45° C. • After filtration with a nylon filter at 0.45 μm, a dilution in the mobile phase is performed for a high-performance liquid chromatography assay. The active principle content is determined by the following high-performance liquid chromatography method: • Column: XTerra® RP 8 5 μm 4.6×250 mm • Mobile phase: • 65% water containing 0.13% oxalic acid • 22% acetonitrile • 13% methanol • Flow rate: 1.0 mL/min
Stability tests are performed at temperatures of 25° C. and 40° C.: […]

stability of doxycycline in glycerol solution as a function of time (0.1% doxycycline hyclate in glycerol with β-cyclodextrins)	stability of doxycycline in glycerol solution as a function of time (0.1% doxycycline hyclate in glycerol without β-cyclodextrins)	stability of doxycycline in aqueous solution as a function of time (0.1% aqueous solution, 25° C. and 40° C. (FIG. 1))	Molecule
no or little degradation	no or little degradation		doxycycline hyclate
		rapidly degraded	C[C@H]1c2cccc(O)c2C(=O)C2=C(O)[C@]3(O)C(=O)C(C(N)=O)=C(O)[C@@H](N(C)C)[C@@H]3[C@@H](O)[C@@H]21 [doxycycline]
